Results from PMC8771711, “Synthesis of Lasalocid-Based Bioconjugates and Evaluation of Their Anticancer Activity” (ACS Omega, 2022).

Legend:
[1] = tested on: ROS production in PC3, SW480, SW620 cells; assay: ROS detection, DCFH-DA and DHR-123 assay, cancer cell lines; type: cell-based, human; conditions: IC50 concentration; DCF and rhodamine fluorescence intensity
Protocol: (§1) ROS generation was assessed by the spectrofluorometric method using the 2′,7′-dichlorodihydrofluorescein diacetate (DCFH-DA) or dihydrorhodamine 123 (DHR-123). The method is based on the ROS-dependent oxidation of the compounds to fluorescent dichlorofluorescein (DCF) or rhodamine-123, respectively.[61] PC3, SW480, SW620, and HaCaT were seeded on to 96-well plates (5 × 10^4 cells per well) and allowed to adhere for 24 h. Then, cells were rinsed with PBS and incubated with DCFH-DA (5 μM) or DHR-123 (1 μM) for 30 min at 37 °C in the dark. […] A sample with H2O2 (1.5 mM) was a positive control, and a sample without any reagent was a negative control. Maximum excitation and emission spectra for DCF were 492 and 527 nm, and those for rhodamine-123 were 500 and 536 nm, respectively. The generation of H2O2 was measured by Microplate Spectrofluorometer BioTek Synergy (BioTek Instruments, USA) and expressed as fluorescence intensity (FI). Values from three experiments performed in triplicate were analyzed.

[2] = tested on: ROS production in HaCaT cells; assay: ROS detection, DCFH-DA and DHR-123 assay, HaCaT; type: cell-based, human; conditions: IC50 concentration; for ROS level in HaCaT cells (in words): DCF and rhodamine fluorescence intensity; for time of treatment at which the amount of ROS in HaCaT cells was highest: measured after 1, 4, 12, 24 h
Protocol: as §1

[3] = tested on: SW620, human metastatic colon cancer cell line; assay: MTT assay, cytotoxicity in SW620; type: cell-based; conditions: for IC50: Homo sapiens, SW-620, MTT, 72 h, mean ± SD; for SW620 SI (selectivity index): SI = IC50 HaCaT / IC50 SW620
Protocol: (§2) The human cell lines SW480 (primary colon cancer), SW620 (lymph node metastatic colon cancer from the same patient as primary cancer cells), PC3 (metastatic prostate cancer), and HaCaT (immortalized keratinocytes) were obtained from the American Type Culture Collection (ATCC, Rockville, USA). The SW480 and SW620 cells were grown in MEM (ThermoSci, USA), PC3 in RPMI 1640, and HaCaT in DMEM High Glucose (Biowest SAS, France) supplemented with 10% foetal bovine serum (FBS), HEPES (20 mM), and antibiotics (100 U mL^–1 of penicillin and 100 μg mL^–1 of streptomycin). The cells were incubated in a humidified incubator at 37 °C/5% CO2, until 80–90% confluence was reached.
(§3) The cell viability was assessed by using of MTT salt [3-(4,5-dimethylthiazol-2-yl)-2,5-diphenyltetrazolium bromide] converted by mitochondrial dehydrogenase, occurring in living cells. The cells were seeded in 96-well plates at a density of 1 × 10^4 cells per well and allowed to adhere for 24 h at 37 °C in a CO2 humidified incubator. Then, the medium was removed and a fresh medium with various concentrations of tested compounds (from 10 to 120 μM) was added. The untreated cells were used as the control.
(§4) After 72 h incubation, the medium was replaced with 200 μL per well of free serum medium containing 0.5 mg mL^–1 MTT and incubated for 4 h at 37 °C in a CO2 humidified incubator. Subsequently, the medium was removed and dimethyl sulfoxide with isopropanol (1:1) was added to dissolve the formazan crystals. The optical density was measured using a UVM 340 reader (ASYS Hitech GmbH, Austria) at a wavelength of 570 nm. The experiments were repeated three times. The cell viability was calculated as the percent of MTT reduced in treated cells versus control cells (untreated cells). The number of viable cells cultured without tested compounds was assumed as 100%. The decreased relative MTT level indicates decreased cell viability. The IC50 values were estimated using CompuSyn version 1.0.

PC3 cells = assay: Annexin V-FITC/PI binding assay (flow cytometry) in PC3; type: cell-based, human; conditions: IC50 concentration, 72 h
Protocol: (§5) The SW480, SW620, PC3, and HaCaT cells were cultured and harvested under the conditions mentioned in the Section 4.5 and seeded in 12-well plates (1 × 10^5 cells per well). […] The apoptotic effect was performed using the Annexin V-FITC/propidium iodide (PI) apoptosis assay kit (Becton Dickinson, Pharmingen), according to the manufacturer’s instructions, and analyzed by flow cytometry (Becton Dickinson). The cells which were Annexin V-FITC-positive and PI-negative were identified as early apoptotic and both Annexin V-FITC- and PI-positive as late apoptotic or necrotic. The experiment was repeated three times.

HaCaT cells = assay: Annexin V-FITC/PI binding assay (flow cytometry) in HaCaT; type: cell-based, human; conditions: IC50 concentration, 72 h; span stated for compounds 12 and 13 together
Protocol: as §5

[4] = tested on: PC3, human prostate cancer cell line; assay: MTT assay, cytotoxicity in PC3; type: cell-based; conditions: for IC50: Homo sapiens, MTT, 72 h, mean ± SD; for PC3 SI (selectivity index): SI = IC50 HaCaT / IC50 PC3
Protocol: as §2, §3, §4

[5] = tested on: HaCaT, human immortalized keratinocyte cell line; assay: MTT assay, cytotoxicity in HaCaT; type: cell-based; conditions: Homo sapiens, HaCaT, 72 h, mean ± SD, nontumor cells
Protocol: as §2, §3, §4

SW480 cells = assay: Annexin V-FITC/PI binding assay (flow cytometry) in SW480; type: cell-based, human; conditions: IC50 concentration, 72 h
Protocol: as §5

[6] = tested on: SW480, human primary colon cancer cell line; assay: MTT assay, cytotoxicity in SW480; type: cell-based; conditions: for IC50: Homo sapiens, SW480, MTT, 72 h, mean ± SD; for SW480 SI (selectivity index): SI = IC50 HaCaT / IC50 SW480
Protocol: as §2, §3, §4

IL-6 in PC3 cells = assay: Interleukin-6 assay (ELISA) in PC3; type: cell-based, human; conditions: IC50 concentration, 72 h, ELISA of culture supernatant, p ≤ 0.001
Protocol: (§6) The level of interleukin-6 (IL-6) in SW480, SW620, and PC3 cell lines was measured by commercial human IL-6 ELISA kits Diaclon SAS (Besancon Cedex, France). […] The untreated cells were used as the control. The IL-6 level in a cell culture supernatant was measured using an enzyme-linked immunosorbent assay, in accordance with the manufacturer’s instruction. The experiment was repeated three times.

SW620 cells = assay: Annexin V-FITC/PI binding assay (flow cytometry) in SW620; type: cell-based, human; conditions: IC50 concentration, 72 h
Protocol: as §5

IL-6 in SW480 cells = assay: Interleukin-6 assay (ELISA) in SW480; type: cell-based, human; conditions: IC50 concentration, 72 h, ELISA of culture supernatant
Protocol: as §6

IL-6 in SW620 cells = assay: Interleukin-6 assay (ELISA) in SW620; type: cell-based, human; conditions: IC50 concentration, 72 h, ELISA of culture supernatant
Protocol: as §6

Row | SMILES | ROS level in cancer cell lines (in words) [1] | ROS level in HaCaT cells (in words) [2] | time of treatment at which the amount of ROS in HaCaT cells was highest [2] [h] | IC50 [3] [µM] | SW620 SI (selectivity index) [3] | percentage of necrotic PC3 cells (PC3 cells) [%] | late apoptosis in HaCaT cells (HaCaT cells) [%] | IC50 [4] [µM] | PC3 SI (selectivity index) [4] | IC50 [5] [µM] | percentage of late apoptotic SW480 cells (SW480 cells) [%] | percentage of necrotic SW480 cells (SW480 cells) [%] | IC50 [6] [µM] | SW480 SI (selectivity index) [6] | percentage of late apoptotic PC3 cells (PC3 cells) [%] | inhibition of IL-6 release in PC3 cells, fold more effectively compared to control (IL-6 in PC3 cells) [fold] | early apoptosis in SW620 cells (SW620 cells) [%] | late apoptosis in SW620 cells (SW620 cells) [%] | decrease of IL-6 concentration in SW480 cells compared to the control (IL-6 in SW480 cells) [time] | decrease of IL-6 concentration in SW620 cells compared to the control (IL-6 in SW620 cells) [time]
1 | CC[C@@H](C(=O)[C@@H](C)[C@@H](O)[C@H](C)CCc1ccc(C)c(O)c1C(=O)OCCC[P+](c1ccccc1)(c1ccccc1)c1ccccc1)[C@H]1O[C@](CC)([C@H]2CC[C@](O)(CC)[C@H](C)O2)C[C@@H]1C [Compound 13, LAS–TPP Conjugate] | significantly higher level of ROS | significantly higher level of ROS | 12 | 2.3 ± 2.2 | 1.4 | 56.81 | 57.26 to 72.01 | 1.8 ± 0.09 | 1.8 | 3.2 ± 0.12 | 20.15 | 24.82 | 1.4 ± 1.5 | 2.3 | – | – | – | – | – | –
2 | CC[C@@H](C(=O)[C@@H](C)[C@@H](O)[C@H](C)CCc1ccc(C)c(O)c1C(=O)OCc1cc(=O)c(O)co1)[C@H]1O[C@](CC)([C@H]2CC[C@](O)(CC)[C@H](C)O2)C[C@@H]1C [Compound 7, LAS–Kojic Acid Conjugate] | – | – | – | 9.9 ± 0.08 | 0.6 | 26.00 | – | 3.8 ± 0.07 | 1.7 | 6.3 ± 0.1 | – | 22.39 | 7.8 ± 0.09 | 0.8 | 28.24 | ~1.2 | – | – | – | –
3 | CC[C@@H](C(=O)[C@@H](C)[C@@H](O)[C@H](C)CCc1ccc(C)c(O)c1C(=O)OC[C@H]1O[C@@H](n2ccc(N)nc2=O)C(F)(F)[C@@H]1O)[C@H]1O[C@](CC)([C@H]2CC[C@](O)(CC)[C@H](C)O2)C[C@@H]1C [Compound 12, LAS–Gemcitabine Conjugate] | significantly higher level of ROS | slightly elevated level of ROS | 4 | 3.6 ± 1.1 | 3.9 | 40.31 | 57.26 to 72.01 | 1.6 ± 1.2 | 8.8 | 14 ± 0.22 | – | 42.85 | 12 ± 0.86 | 1.2 | 39.92 | – | 14.53 | 14.79 | ~1.0 | ~1.3
